Experimental data reported in patent US11596639B2, “Substituted indole Mcl-1 inhibitors” (Vanderbilt University, priority 2016, dated 2023).
Where two headings read alike, the source gives them in different places.

Columns and labels:
Mcl-1 = Mcl-1 (Homo sapiens (Human), UniProt Q07820); assay: Fluorescence polarization anisotropy (FPA) competition assay, FITC-Bak or FITC-Bim BH3 peptide; assay type: binding; details: read-out: Ki for Inhibition of Mcl-1 by FPA assay
[1] = tested on: H929 human cancer cell lines; assay: Cellular viability / proliferation (Cell TiterGlo, 72 h); assay type: cell-based
Summary of the method: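 1,000 cells/well, 10% FBS medium; compound added at 24 h, 2-fold dilutions from 50 μM top, DMSO <1% final. 72 h exposure, CellTiterGlo 30 min RT dark, luminescence read. IC50 by 4-parameter fit.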

[2] = Homo sapiens, NCI-H929, 72 h, read-out: GI50 on cellular proliferation of H929 human cancer cell lines, H929 cells, 72 h, Cell TiterGlo, 10% FBS

Chain of Mcl-1 (Q07820 172-327): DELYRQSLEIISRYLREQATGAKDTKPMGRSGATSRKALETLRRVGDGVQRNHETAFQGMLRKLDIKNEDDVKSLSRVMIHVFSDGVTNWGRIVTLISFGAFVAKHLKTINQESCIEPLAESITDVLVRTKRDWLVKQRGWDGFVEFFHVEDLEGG

| Structure (SMILES) | Ki (Mcl-1) | GI50 [1, 2] | GI50 ([1]; H929 cells, 72 h, Cell TiterGlo, 10% FBS, read-out: GI50 on cellular proliferation of H929 human cancer cell lines) | GI50 ([1]; read-out: GI50 on cellular proliferation of H929 human cancer cell lines, H929 cells, 72 h, Cell TiterGlo, 10% FBS) |
| --- | --- | --- | --- | --- |
| Cc1cc(OCCCc2c3n(c4c(-c5c(C)nn(C)c5C)c(Cl)ccc24)[C@H](C)CN(c2cccc4cc(C(=O)O)[nH]c24)C3=O)cc(C)c1Cl [Example 233, 7-[(4R)-7-chloro-10-[3-(4-chloro-3,5-dimethyl-phenoxy)propyl]-4-methyl-1-oxo-6-(1,3,5-trimethylpyrazol-4-yl)-3,4-dihydropyrazino[1,2-a]indol-2-yl]-1H-indole-2-carboxylic acid] | < 0.001 µM | 1.4 µM | – | – |
| Cc1cc(N2C[C@@H](C)n3c(c(CCCOc4cc(C)c(Cl)c(C)c4)c4ccc(Cl)c(-c5c(C)nn(C)c5C)c43)C2=O)c2c(c1)cc(C(N)=O)n2Cc1ccccn1 [Example 415, (R)-7-(7-Chloro-10-(3-(4-chloro-3,5-dimethylphenoxy)propyl)-4-methyl-1-oxo-6-(1,3,5-trimethyl-1H-pyrazol-4-yl)-3,4-dihydropyrazino[1,2-a]indol-2(1H)-yl)-5-methyl-1-(pyridin-2-ylmethyl)-1H-indole-2-carboxamide] | 0.0034 µM | 0.51 µM | – | – |
| Cc1cc(OCCCc2c3n(c4c(-c5c(C)nn(C)c5C)c(Cl)ccc24)[C@H](C)CN(c2cccc4cc(C(=O)O)n(Cc5cscn5)c24)C3=O)cc(C)c1Cl [Example 304, 7-[(4R)-7-chloro-10-[3-(4-chloro-3,5-dimethyl-phenoxy)propyl]-4-methyl-1-oxo-6-(1,3,5-trimethylpyrazol-4-yl)-3,4-dihydropyrazino[1,2-a]indol-2-yl]-1-(thiazol-4-ylmethyl)indole-2-carboxylic acid] | < 0.001 µM | 0.37 µM | – | – |
| Cc1cc(OCCCc2c3n(c4c(-c5c(C)nn(C)c5C)c(Cl)ccc24)[C@H](C)CN(c2nccc4cc(C(N)=O)ccc24)C3=O)cc(C)c1Cl [Example 375, (R)-1-(7-Chloro-10-(3-(4-chloro-3,5-dimethylphenoxy)propyl)-4-methyl-1-oxo-6-(1,3,5-trimethyl-1H-pyrazol-4-yl)-3,4-dihydropyrazino[1,2-a]indol-2(1H)-yl)isoquinoline-6-carboxamide] | 0.01 µM | 2.5 µM | – | – |
| Cc1cc(OCCCc2c3n(c4c(-c5c(C)ncnc5C)c(C)ccc24)[C@H](C)CN(c2cccc4cc(C(=O)O)n(Cc5ccccn5)c24)C3=O)cc(C)c1Cl (atropisomer, axis not shown) [Example 271, (R)-7-(10-(3-(4-chloro-3,5-dimethylphenoxy)propyl)-6-(4,6-dimethylpyrimidin-5-yl)-4,7-dimethyl-1-oxo-3,4-dihydropyrazino[1,2-a]indol-2(1H)-yl)-1-(pyridin-2-ylmethyl)-1H-indole-2-carboxylic acid] | < 0.001 µM | 0.26 µM | – | – |
| COc1cc(N2C[C@@H](C)n3c(c(CCCOc4cc(C)c(Cl)c(C)c4)c4ccc(Cl)c(-c5c(C)nn(C)c5C)c43)C2=O)c2cc(C(=O)O)n(C)c2c1 [Example 334, (M, R)-4-(7-Chloro-10-(3-(4-chloro-3,5-dimethylphenoxy)propyl)-4-methyl-1-oxo-6-(1,3,5-trimethyl-1H-pyrazol-4-yl)-3,4-dihydropyrazino[1,2-a]indol-2(1H)-yl)-6-methoxy-1-methyl-1H-indole-2-carboxylic acid] | < 0.001 µM | – | 1.2 µM | – |
| Cc1cc(OCCCc2c3n(c4c(-c5c(C)nn(C)c5C)c(Cl)ccc24)[C@H](C)CN(c2cn(CCN4CCOCC4)c4cc(C(N)=O)ccc24)C3=O)cc(C)c1Cl [Example 402, (R)-3-(7-Chloro-10-(3-(4-chloro-3,5-dimethylphenoxy)propyl)-4-methyl-1-oxo-6-(1,3,5-trimethyl-1H-pyrazol-4-yl)-3,4-dihydropyrazino[1,2-a]indol-2(1H)-yl)-1-(2-morpholinoethyl)-1H-indole-6-carboxamide] | 0.0049 µM | 1.1 µM | – | – |
| Cc1cc(OCCCc2c3n(c4c(-c5c(C)nn(C)c5C)c(Cl)ccc24)[C@H](C)CN(c2cc4c(C(=O)O)cccc4n2C)C3=O)cc(C)c1Cl [Example 170, 2-[(4R)-7-chloro-10-[3-(4-chloro-3,5-dimethyl-phenoxy)propyl]-4-methyl-1-oxo-6-(1,3,5-trimethylpyrazol-4-yl)-3,4-dihydropyrazino[1,2-a]indol-2-yl]-1-methyl-indole-4-carboxylic acid] | 0.0027 µM | 2.6 µM | – | – |
| Cc1cc(OCCCc2c3n(c4c(-c5c(C)nn(C)c5C)c(Cl)ccc24)[C@H](C)CN(c2cn(C)c4ccc(-c5ncn(CC(C)C)n5)cc24)C3=O)cc(C)c1Cl [Example 454, (R)-7-Chloro-10-(3-(4-chloro-3,5-dimethylphenoxy)propyl)-2-(5-(1-isobutyl-1H-1,2,4-triazol-3-yl)-1-methyl-1H-indol-3-yl)-4-methyl-6-(1,3,5-trimethyl-1H-pyrazol-4-yl)-3,4-dihydropyrazino[1,2-a]indol-1(2H)-one] | 0.0035 µM | 2.1 µM | – | – |
| Cc1cc(N2C[C@@H](C)n3c(c(CCCOc4cc(C)c(Cl)c(C)c4)c4ccc(Cl)c(-c5c(C)nn(C)c5C)c43)C2=O)c2c(c1)cc(C(=O)O)n2C [Example 201, (R)-7-(7-Chloro-10-(3-(4-chloro-3,5-dimethylphenoxy)propyl)-4-methyl-1-oxo-6-(1,3,5-trimethyl-1H-pyrazol-4-yl)-3,4-dihydropyrazino[1,2-a]indol-2(1H)-yl)-1,5-dimethyl-1H-indole-2-carboxylic acid] | < 0.001 µM | < 0.2 µM | – | – |
| CNC(=O)c1ccc2c(c1)c(N1C[C@@H](C)n3c(c(CCCOc4cc(C)c(Cl)c(C)c4)c4ccc(Cl)c(-c5c(C)nn(C)c5C)c43)C1=O)cn2C [Example 286, (R)-3-(7-chloro-10-(3-(4-chloro-3,5-dimethylphenoxy)propyl)-4-methyl-1-oxo-6-(1,3,5-trimethyl-1H-pyrazol-4-yl)-3,4-dihydropyrazino[1,2-a]indol-2(1H)-yl)-N,1-dimethyl-1H-indole-5-carboxamide] | 0.0033 µM | 0.51 µM | – | – |
| Cc1cc(OCCCc2c3n(c4c(-c5c(C)ncnc5C)c(Cl)ccc24)CCCN(c2ccnc4ccc(C(=O)O)cc24)C3=O)cc(C)c1Cl [Example 220, 4-[8-Chloro-11-[3-(4-chloro-3,5-dimethyl-phenoxy)propyl]-7-(4,6-dimethylpyrimidin-5-yl)-1-oxo-4,5-dihydro-3H-[1,4]diazepino[1,2-a]indol-2-yl]quinoline-6-carboxylic acid] | < 0.001 µM | 2 µM | – | – |
| CC[C@@H]1Cn2c(c(CCCOc3cc(C)c(Cl)c(C)c3)c3ccc(Cl)c(-c4c(C)nn(C)c4C)c32)C(=O)N1Cc1ccc(C(=O)O)cn1 [Example 20, (R)-6-((7-chloro-10-(3-(4-chloro-3,5-dimethylphenoxy)propyl)-3-ethyl-1-oxo-6-(1,3,5-trimethyl-1H-pyrazol-4-yl)-3,4-dihydropyrazino[1,2-a]indol-2(1H)-yl)methyl)nicotinic acid] | 0.0025 µM | 6.5 µM | – | – |
| Cc1cc(OCCCc2c3n(c4c(-c5c(C)nn(C)c5C)c(Cl)ccc24)[C@H](C)CN(c2ccnc4c(C(=O)O)cccc24)C3=O)cc(C)c1Cl [Example 253, (R)-4-(7-Chloro-10-(3-(4-chloro-3,5-dimethylphenoxy)propyl)-4-methyl-1-oxo-6-(1,3,5-trimethyl-1H-pyrazol-4-yl)-3,4-dihydropyrazino[1,2-a]indol-2(1H)-yl)quinoline-8-carboxylic acid] | 0.0012 µM | 1.1 µM | – | – |
| Cc1cc(OCCCc2c3n(c4c(-c5c(C)ncnc5C)c(Cl)ccc24)[C@H](C)CN(c2nn(C)c4cccc(C(=O)O)c24)C3=O)cc(C)c1Cl [Example 273, 3-[(4R)-7-chloro-10-[3-(4-chloro-3,5-dimethyl-phenoxy)propyl]-6-(4,6-dimethylpyrimidin-5-yl)-4-methyl-1-oxo-3,4-dihydropyrazino[1,2-a]indol-2-yl]-1-methyl-indazole-4-carboxylic acid] | < 0.001 µM | 4.1 µM | – | – |
| Cc1cc(OCCCc2c3n(c4c(-c5c(C)nn(C)c5C)c(Cl)ccc24)[C@H](C)CN(c2cccc4cc(C(=O)O)n(CC5CC5)c24)C3=O)cc(C)c1Cl [Example 254, 7-[(4R)-7-chloro-10-[3-(4-chloro-3,5-dimethyl-phenoxy)propyl]-4-methyl-1-oxo-6-(1,3,5-trimethylpyrazol-4-yl)-3,4-dihydropyrazino[1,2-a]indol-2-yl]-1-(cyclopropylmethyl)indole-2-carboxylic acid] | < 0.001 µM | 0.58 µM | – | – |
| Cc1cc(OCCCc2c3n(c4c(-c5c(C)nn(C)c5C)c(Cl)ccc24)[C@H](C)CN(c2cccc4cc(C(=O)O)n(Cc5ccccn5)c24)C3=O)cc(C)c1Cl [Example 249, 7-[(4R)-7-chloro-10-[3-(4-chloro-3,5-dimethyl-phenoxy)propyl]-4-methyl-1-oxo-6-(1,3,5-trimethylpyrazol-4-yl)-3,4-dihydropyrazino[1,2-a]indol-2-yl]-1-(2-pyridylmethyl)indole-2-carboxylic acid] | < 0.001 µM | – | – | 0.49 µM |
| Cc1nn(C)c(C)c1-c1c(Cl)ccc2c(CCCOc3ccc(F)cc3)c3n(c12)[C@H](C)CN(c1cn(C)c2ccc(C(=O)O)cc12)C3=O [Example 410, (R)-3-(7-Chloro-10-(3-(4-fluorophenoxy)propyl)-4-methyl-1-oxo-6-(1,3,5-trimethyl-1H-pyrazol-4-yl)-3,4-dihydropyrazino[1,2-a]indol-2(1H)-yl)-1-methyl-1H-indole-5-carboxylic acid] | 0.0014 µM | 4 µM | – | – |
| Cc1cc(OCCCc2c3n(c4c(-c5c(C)nn(C)c5C)c(Cl)ccc24)[C@H](C)CN(c2cc(C(=O)O)c4cc[nH]c4c2)C3=O)cc(C)c1Cl [Example 101, (R)-6-(7-chloro-10-(3-(4-chloro-3,5-dimethylphenoxy)propyl)-4-methyl-1-oxo-6-(1,3,5-trimethyl-1H-pyrazol-4-yl)-3,4-dihydropyrazino[1,2-a]indol-2(1H)-yl)-1H-indole-4-carboxylic acid] | < 0.001 µM | 2.1 µM | – | – |
